Results taken from patent US20190375778A1, “ADENOSINE DERIVATIVES FOR USE IN THE TREATMENT OF CANCER” (NuCana plc, priority 2016, published 2019).

Assays:
Murine leukemia L1210 = assay: Cell proliferation (Coulter count) assay, L1210; type: cell-based; settings: Mus musculus, 48 h, read-out: absolute IC50, L1210
Source text: (§1) Lovo: cell line derived from a metastatic site in a patient with colon cancer MCF7: human oestrogen sensitive mammary epithelial cell line PC3: human prostate cancer cell line A549: cancerous lung tissue derived cells L1210: lymphoblast cell line derived from a mouse with lymphocytic leukaemia FM3A: mammary carcinoma murine cells CEM: human T-lymphoblasts, derived from the blood of a patient with acute lymphoblastic leukaemia HeLa: epithelial cells from a patient with cervical adenocarcinoma
(§2) Murine leukemia L1210, human T-lymphocyte CEM, and human cervix carcinoma HeLa cells were obtained from the American Type Culture Collection (ATCC) (Rockville, Md.). All cells were maintained in Dulbecco's modified Eagle's medium (DMEM) (Invitrogen, Carlsbad, Calif.) with 10% fetal bovine serum (FBS) (Biochrom AG, Berlin, Germany), 10 mM Hepes, and 1 mM sodiumpyruvate (Invitrogen). Cells were grown at 37° C. in a humidified incubator with a gas phase of 5% CO2. Monolayer cells (HeLa and […]) were seeded in 96-well microtiter plates (Nunc, Roskilde, Denmark) at 10 000 cells/well. After 24 h, an equal volume of fresh medium containing the test compounds was added. On day 5, cells were trypsinized and counted in a Coulter counter (Analis, Suarlee, Belgium). Suspension cells (L1210, CEM) were seeded in 96-well microtiter plates (Nunc) at 60 000 cells/well in the presence of a given amount of the test compounds. The cells were allowed to proliferate for 48 h (L1210) or 72 h (CEM) and were then counted in a Coulter counter. The 50% inhibitory concentration (IC50) was defined as the compound concentration required to reduce cell proliferation by 50%. The cytostatic activity of the compounds was determined after 3 days, as outlined above.

human T-lymphocyte CEM = assay: Cell proliferation (Coulter count) assay, CEM; type: cell-based; settings: 72 h, read-out: absolute IC50, CEM
Source text: as §1, §2

[1] = tested on: human cervix carcinoma HeLa cells; assay: Cell proliferation (Coulter count) assay, HeLa; type: cell-based; settings: 120 h, cell count on day 5, read-out: absolute IC50, HeLa
Source text: as §1, §2

CCRFCEM = assay: CellTiterGlo viability assay, CCRFCEM; type: cell-based; settings: Homo sapiens, CCRF-CEM, 72 h, read-out: IC50 CCRFCEM
Method: (§3) In vitro viability assay were performed to assess the effects of compounds on cell viability in selected cell lines over ˜72 hrs using the CellTiterGlo (CTG, Promega-G7573) assay. The tests were performed in duplicates with treatment of compounds at 9 points, 3.16 folds titration in 96 well plates over ˜72 hrs. The compound starting concentrations were 198 μM. Cell viability assay using CellTiterGlo in 96-well plate were performed. Compound treatment 72 hrs, standard growth conditions, duplicates. Compounds were dissolved to 40 mM with thawed […]. Compounds were serially diluted at 3.16 fold in thawed DMSO, and warmed to 37° C. before being dissolved in media (2 μl+200 μl). After compounds were dissolved in media, media containing compounds were warmed to 37° C. in incubator and then compounds in media were added to cell plates (50 μl+50 μl) in duplicates. The compounds' final concentrations were from […] to 19.9 nM. All compound solubilities were checked and recorded again, then the plates were transferred to CO2 tissue culture incubator immediately and incubated for 3 days. DMSO final concentration is 0.5%.

HEL92.1.7 = assay: CellTiterGlo viability assay, HEL92.1.7; type: cell-based; settings: Homo sapiens, HEL 92.1.7, 72 h, read-out: IC50 HEL92.1.7
Method: as §3

KG-1 = assay: CellTiterGlo viability assay, KG-1; type: cell-based; settings: Homo sapiens, KG-1, 72 h, read-out: IC50 KG-1
Method: as §3

K562 = assay: CellTiterGlo viability assay, K562; type: cell-based; settings: Homo sapiens, K562, 72 h, read-out: IC50 K562
Method: as §3

MCF7 [2] = assay: CellTiterGlo viability assay, MCF7; type: cell-based; settings: Homo sapiens, MCF7, 72 h, read-out: IC50 MCF7
Method: as §3

MDAMB231 = assay: CellTiterGlo viability assay, MDAMB231; type: cell-based, Human
Method: as §3

NCI-H929 = assay: CellTiterGlo viability assay, NCI-H929; type: cell-based; settings: Homo sapiens, NCI-H929, 72 h, read-out: IC50 NCI-H929
Method: as §3

MV4-11 = assay: CellTiterGlo viability assay, MV4-11; type: cell-based; settings: Homo sapiens, MV4-11, 72 h, read-out: IC50 MV4-11
Method: as §3

RL = assay: CellTiterGlo viability assay, RL; type: cell-based; settings: Homo sapiens, RL, 72 h, read-out: IC50 RL
Method: as §3

RPMI-8226 = assay: CellTiterGlo viability assay, RPMI-8226; type: cell-based, Human; settings: Homo sapiens, RPMI-8226, 72 h, read-out: IC50 RPMI-8226
Method: as §3

HL-60 = assay: CellTiterGlo viability assay, HL-60; type: cell-based; settings: Homo sapiens, HL-60, 72 h, read-out: IC50 HL-60
Method: as §3

Lovo = assay: MTT cytotoxicity assay, Lovo; type: cell-based; settings: Homo sapiens, 96 h compound exposure, read-out: absolute IC50, Lovo
Source text: as §1
(§4) Anti-tumour evaluation in MCF7, LoVo, A549 and PC3 cell lines was performed by MTT assay. Compounds were prepared as 0.1-100 mM stock solutions dissolved in DMSO and stored at −20° C. Cells were seeded into 96-well microtitre plates at a density of 5×10^3 cells per well and allowed 24 hours to adhere. Decimal compound dilutions were prepared in medium immediately prior to each assay (final concentration 0.1-100 μM). Experimental medium was DMEM+10% FCS (PC3 and Lovo) or RPMI+10% heat inactivated FCS (A549 and MCF7). Following 96 h compound exposure at 37° C., 5% CO2, MTT reagent (Sigma Aldrich) was added to each well (final concentration 0.5 mg/ml). Incubation at 37° C. for 4 h allowed reduction of MTT by viable cells to an insoluble formazan product. MTT was removed and formazan solubilised by addition of 10% Triton X-100 in PBS. Absorbance was read on a Tecan Sunrise spectrophotometer at 540 nm as a measure of cell viability; thus inhibition relative to control was determined (IC50).

MCF7 [3] = assay: MTT cytotoxicity assay, MCF7; type: cell-based; settings: Homo sapiens, 96 h compound exposure, read-out: absolute IC50, MCF7
Source text: as §1, §4

PC3 = assay: MTT cytotoxicity assay, PC3; type: cell-based; settings: Homo sapiens, PC-3, 96 h compound exposure, read-out: absolute IC50, PC3
Source text: as §1, §4

A549 = assay: MTT cytotoxicity assay, A549; type: cell-based; settings: Homo sapiens, 96 h compound exposure, read-out: absolute IC50, A549
Source text: as §1, §4

FM3A = assay: Cytotoxicity, FM3A; type: cell-based, murine; settings: Mus musculus, read-out: absolute IC50, FM3A
Source text: as §1

Row | Structure (SMILES) | IC50 (Murine leukemia L1210) [µM] | IC50 (human T-lymphocyte CEM) [µM] | IC50 [1] [µM] | IC50 (CCRFCEM) [µM] | IC50 (HEL92.1.7) [µM] | IC50 (KG-1) [µM] | IC50 (K562) [µM] | IC50 (MCF7 [2]) [µM] | MI% MDAMB231 (MDAMB231; CellTiterGlo, 72 hrs) [%] | IC50 (MDAMB231; Homo sapiens, MDA-MB-231, 72 h, read-out: IC50 MDAMB231) [µM] | IC50 (NCI-H929) [µM] | IC50 (MV4-11) [µM] | IC50 (RL) [µM] | IC50 (RPMI-8226) [µM] | IC50 (HL-60) [µM] | IC50 (Lovo) [µM] | IC50 (MCF7 [3]) [µM] | IC50 (PC3) [µM] | IC50 (A549) [µM] | IC50 (FM3A) [µM]
1 | CC(C)C[C@H](NP(=O)(OC[C@H]1O[C@@H](n2c(Cl)nc3c(N)ncnc32)C(O)C1O)Oc1cccc2ccccc12)C(=O)OCc1ccccc1 (stereo partly drawn) [H, 5′-([(Benzyloxy-L-leucin-N-yl)-naphth-1-yl]-phosphatyl) 8-chloroadenosine] | 5 to 15 | 0.1 to 5 | 0.1 to 5 | 5 to 15 | 0.1 to 5 | 5 to 15 | 0.1 to 5 | 0.1 to 5 | 99 | 5 to 15 | 0.1 to 5 | 0.1 to 5 | 15 to 100 | 0.1 to 5 | 5 to 15 |  |  |  |  | 
2 | CC(C)OC(=O)[C@H](C)NP(=O)(OC[C@H]1O[C@@H](n2c(Cl)nc3c(N)ncnc32)C(O)C1O)Oc1ccccc1 (stereo partly drawn) [W, 5′-([(Isopropyloxy-L-alanin-N-yl)-phenyl]-phosphatyl) 8-chloroadenosine] | 15 to 100 | 15 to 100 | 15 to 100 |  |  |  |  |  |  |  |  |  |  |  |  | 0.1 to 5 | 15 to 100 | 0.1 to 5 | 15 to 100 | 15 to 100
3 | CC(C)(C)COC(=O)C(C)(C)NP(=O)(OC[C@H]1O[C@@H](n2c(Cl)nc3c(N)ncnc32)C(O)C1O)Oc1ccccc1 (stereo partly drawn) [Y, 5′-([(Neopentyloxy-2,2-dimethylglycin-N-yl)-phenyl]-phosphatyl) 8-chloroadenosine] | 15 to 100 | 15 to 100 | 15 to 100 |  |  |  |  |  |  |  |  |  |  |  |  | 0.1 to 5 | 15 to 100 | 0.1 to 5 | > 100 | 15 to 100
4 | COC(=O)[C@H](CCSC)NP(=O)(OC[C@H]1O[C@@H](n2c(Cl)nc3c(N)ncnc32)C(O)C1O)Oc1ccccc1 (stereo partly drawn) [Z, 5′-([(Methyloxy-L-methionine-N-yl)phenyl]-phosphatyl) 8-chloroadenosine] | 15 to 100 | 15 to 100 | 15 to 100 |  |  |  |  |  |  |  |  |  |  |  |  | 15 to 100 | 15 to 100 | 15 to 100 | > 100 | > 100
